US20250136559A1, “SMO MODULATOR COMPOUNDS” (OMASS THERAPEUTICS LIMITED, priority 2022, published 2025)

Key:
Format in all cases: cell-based
mouse SMO^WT = target: T1, mouse SMO^WT (Mus musculus, UniProt P56726); test: Mouse assay: Gli1 qPCR in MEF cells stably expressing mouse SMO WT; details: mSHh-treated, 24 hours; for IC50: Gli1 inhibition by qPCR, read-out: Mouse WT pIC50 (converted); for Mouse WT % Inh: percentage Gli1 inhibition
T1 construct: expressed in transfected cells
Method in brief: (§1)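 MEFs stably expressing the SMO variant pre-treated with compound 1 h, then stimulated with mSHh and incubated 24 h at 37 °C. Gli1 mRNA quantified by one-step TaqMan qPCR with Gusb reference, four replicates per concentration; expressed as % Gli1 inhibition relative to mSHh-treated controls.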

mouse SMO^D473H = target: T2, mouse SMO^D473H (Mus musculus, UniProt P56726, D477H); test: Mouse assay: Gli1 qPCR in MEF cells stably expressing mouse SMO D473H; details: mSHh-treated, 24 hours; for IC50: Gli1 inhibition by qPCR, read-out: Mouse D473H pIC50 (converted); for Mouse D473H % Inh: percentage Gli1 inhibition
T2 construct: expressed in transfected cells
Method in brief: as §1

hSMO WT = target: T3, hSMO WT (Homo sapiens, UniProt Q99835); test: Human assay: Gli1 qPCR in MEF SMO-/- cells BacMam-transduced with hSMO WT; details: mSHh-treated, 24 hours; for IC50: Gli1 inhibition by qPCR, read-out: Human WT pIC50 (converted); for Human WT % Inh: percentage Gli1 inhibition
T3 construct: expressed in transfected cells; host or cells: SMO knock-out mouse embryonic fibroblasts (MEF SMO-/-), BacMam transduction
Method: (§2) Cell culture. All materials were purchased from Sigma-Aldrich, unless otherwise stated. SMO knock-out mouse embryonic fibroblasts (MEF^SMO−/−) were maintained in Dulbecco's modified Eagle's medium (DMEM)/high-glucose medium supplemented with 10% foetal bovine serum (FBS, Invitrogen), 50 U/mL penicillin and 5 mg/mL streptomycin (supplied as a mixture), 0.1 mMMEM Non-Essential Amino Acids (supplied as 100× solution, ThermoFisher) and 1 mM sodium pyruvate at 37° C. in a humidified 95% air/5% CO2 atmosphere.
(§3) BacMam transduction and compound treatment. MEF^SMO−/− cells were transduced with BacMam virus (MOI 1:10 in the presence of 4.2 mM valproic acid) containing either the hSMO WT or desired receptor variant sequence. Transduced cells were seeded at 6000 cells per well in a Poly-D-Lysine coated 384-well plate (Greiner) before the spent culture medium was removed on the following day and replaced with assay medium (OptiMEM (Gibco) supplemented with 50 U/mL penicillin and 5 mg/mL streptomycin (supplied as a mixture), 0.1 mMMEM Non-Essential Amino Acids (supplied as 100× solution, ThermoFisher), 1 mM sodium pyruvate and 10 mM HEPES) containing test compounds at 2.5× final assay concentrations. After 1 hour incubation, cells were treated with assay medium containing mSHh prepared at 2.5× of final assay concentrations specified in the text and incubated for a further 24 hours at 37° C. in a humidified 95% air/5% ° C.2 atmosphere prior to qPCR analysis.
(§4) Cell lysis and one-step qPCR. The Cells-to-CT™ 1-Step TaqMan® Kit was used in conjunction with TaqMan primer-probe assays for the detection of Gill (FAM, Mm00494654_m1) and Gusb (VIC, Mm01197698_m1) genes (all purchased from Life Technologies). Following 24 hours cell treatment, spent medium was removed and cells were washed with PBS before the application of lysis and stop solution as per manufacturer's instructions. The qPCR reactions were run in a 384-well PCR plate using master mix prepared according to manufacturer's instructions and cell lysate samples from treatment wells. Real-time PCR amplification was detected using the Bio-Rad CFX384 Touch PCR system. Four experimental replicates (two cell replicates and two qPCR replicates) were performed for each compound concentration tested. Real-time data were analysed using the CFX Maestro software (Bio-Rad) and obtained expression values were converted to percentage Gill inhibition by normalising to the average Gill expression of mSHh-treated control samples

mouse SMO^W535L = target: T4, mouse SMO^W535L (Mus musculus, UniProt P56726, W539L); test: Mouse assay: Gli1 qPCR in MEF cells stably expressing mouse SMO W535L; details: mSHh-treated, 24 hours; for IC50: Gli1 inhibition by qPCR, read-out: Mouse W535L pIC50 (converted); for Mouse W535L % Inh: percentage Gli1 inhibition
T4 construct: expressed in transfected cells
Method in brief: as §1

human SMO D473H = target: T5, human SMO D473H (Homo sapiens, UniProt Q99835, D473H); test: Human assay: Gli1 qPCR in MEF SMO-/- cells BacMam-transduced with hSMO D473H variant; details: mSHh-treated, 24 hours; for IC50: Gli1 inhibition by qPCR, read-out: Human D473H pIC50 (converted); for Human D473H % Inh: percentage Gli1 inhibition
T5 construct: expressed in transfected cells; host or cells: SMO knock-out mouse embryonic fibroblasts (MEF SMO-/-), BacMam transduction
Method: Cell culture. All materials were purchased from Sigma-Aldrich, unless otherwise stated.
as §3, with “concentrations.” for “concentrations. After 1 hour incubation, cells were treated with assay medium containing mSHh prepared at 2.5× of final assay concentrations specified in the text and incubated for a further 24 hours at 37° C. in a humidified 95% air/5% ° C.2 atmosphere prior to qPCR analysis.”
as §4

human SMO W535L = target: T6, human SMO W535L (Homo sapiens, UniProt Q99835, W535L); test: Human assay: Gli1 qPCR in MEF SMO-/- cells BacMam-transduced with hSMO W535L variant; details: mSHh-treated, 24 hours; for IC50: Gli1 inhibition by qPCR, read-out: Human W535L pIC50 (converted); for Human W535L % Inh: percentage Gli1 inhibition
T6 construct: expressed in transfected cells; host or cells: SMO knock-out mouse embryonic fibroblasts (MEF SMO-/-), BacMam transduction
Method: as §2, §3, §4

T4 sequence (P56726 33-793 W539L): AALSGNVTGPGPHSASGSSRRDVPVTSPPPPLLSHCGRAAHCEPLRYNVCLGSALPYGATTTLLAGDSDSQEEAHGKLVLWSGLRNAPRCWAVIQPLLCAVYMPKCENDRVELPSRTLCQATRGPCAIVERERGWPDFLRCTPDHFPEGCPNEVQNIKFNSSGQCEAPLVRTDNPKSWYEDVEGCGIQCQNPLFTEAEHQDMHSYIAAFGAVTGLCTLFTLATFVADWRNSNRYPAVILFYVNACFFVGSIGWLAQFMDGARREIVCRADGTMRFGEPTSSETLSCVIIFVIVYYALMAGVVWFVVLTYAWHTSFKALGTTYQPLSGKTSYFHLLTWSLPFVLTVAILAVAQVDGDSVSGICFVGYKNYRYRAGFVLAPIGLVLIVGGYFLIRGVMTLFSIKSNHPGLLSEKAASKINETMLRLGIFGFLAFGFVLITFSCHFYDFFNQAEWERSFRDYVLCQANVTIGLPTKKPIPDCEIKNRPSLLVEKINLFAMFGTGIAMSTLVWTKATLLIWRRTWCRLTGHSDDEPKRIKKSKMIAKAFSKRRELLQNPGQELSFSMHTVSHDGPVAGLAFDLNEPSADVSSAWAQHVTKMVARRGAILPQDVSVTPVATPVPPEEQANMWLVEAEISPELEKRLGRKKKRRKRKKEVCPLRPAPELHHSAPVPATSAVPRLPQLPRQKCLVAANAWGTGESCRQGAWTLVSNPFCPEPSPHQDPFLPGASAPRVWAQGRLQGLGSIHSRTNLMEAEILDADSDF
T5 sequence (Q99835 28-787 D473H): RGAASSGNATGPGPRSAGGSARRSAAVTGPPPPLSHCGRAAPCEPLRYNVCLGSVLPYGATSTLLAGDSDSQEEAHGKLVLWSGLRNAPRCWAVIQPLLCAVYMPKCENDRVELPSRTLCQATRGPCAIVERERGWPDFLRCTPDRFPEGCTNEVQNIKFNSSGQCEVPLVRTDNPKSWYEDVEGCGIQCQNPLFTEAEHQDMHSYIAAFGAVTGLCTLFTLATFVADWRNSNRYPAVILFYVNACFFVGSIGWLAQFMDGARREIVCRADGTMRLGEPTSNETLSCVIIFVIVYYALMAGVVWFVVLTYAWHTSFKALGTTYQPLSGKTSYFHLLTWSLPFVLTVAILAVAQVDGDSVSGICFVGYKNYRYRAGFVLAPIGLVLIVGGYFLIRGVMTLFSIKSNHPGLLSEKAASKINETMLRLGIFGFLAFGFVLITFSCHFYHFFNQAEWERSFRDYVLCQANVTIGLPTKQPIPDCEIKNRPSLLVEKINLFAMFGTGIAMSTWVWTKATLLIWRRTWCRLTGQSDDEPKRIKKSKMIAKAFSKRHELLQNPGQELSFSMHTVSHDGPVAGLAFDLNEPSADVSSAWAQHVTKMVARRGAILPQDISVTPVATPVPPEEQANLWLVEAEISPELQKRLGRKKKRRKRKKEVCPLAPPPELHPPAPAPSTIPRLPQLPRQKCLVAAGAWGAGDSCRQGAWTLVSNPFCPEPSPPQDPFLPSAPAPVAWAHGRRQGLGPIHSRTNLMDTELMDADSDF
T2 sequence (P56726 33-793 D477H): as the sequence (P56726 33-793 W539L) above, with D445H, L507W counted along it
T1 sequence (P56726 33-793): as the sequence (P56726 33-793 W539L) above, with L507W counted along it
T6 sequence (Q99835 28-787 W535L): as the sequence (Q99835 28-787 D473H) above, with H446D, W508L counted along it
T3 sequence (Q99835 28-787): as the sequence (Q99835 28-787 D473H) above, with H446D counted along it

Row | IC50 (mouse SMO^WT) [nM] | Mouse WT % Inh (mouse SMO^WT) [%] | IC50 (mouse SMO^D473H) [nM] | Mouse D473H % Inh (mouse SMO^D473H) [%] | IC50 (hSMO WT) [nM] | Human WT % Inh (hSMO WT) [%] | IC50 (mouse SMO^W535L) [nM] | Mouse W535L % Inh (mouse SMO^W535L) [%] | IC50 (human SMO D473H) [nM] | Human D473H % Inh (human SMO D473H) [%] | IC50 (human SMO W535L) [nM] | Human W535L % Inh (human SMO W535L) [%] | SMILES
1 | 6.31 | 97.8 | 12.6 | 98.1 | 5.01 | 88.4 | 63.1 | 54.8 | 50.1 | 100.2 | 12.6 | 77.8 | CC(C)c1noc(-c2ccc(NC(=O)c3cccc(CN4CCS(=O)(=O)CC4)c3)cc2)n1 [Example 4-10, 3-[(1,1-Dioxo-1,4-thiazinan-4-yl)methyl]-N-[4-(3-propan-2-yl-1,2,4-oxadiazol-5-yl)phenyl]benzamide]
2 | 2 | 97.2 | 7.94 | 97.4 | 0.794 | 99.3 | 6.31 | 68.6 | 39.8 | 114.2 | 20 | 102.7 | O=C(Nc1ccc(-c2noc(Cc3ccc(F)cc3)n2)cc1)c1cccc(CN2CCS(=O)(=O)CC2)c1 [Example 4-17, 3-[(1,1-Dioxo-1,4-thiazinan-4-yl)methyl]-N-[4-[5-[(4-fluorophenyl)methyl]-1,2,4-oxadiazol-3-yl]phenyl]benzamide]
3 | 5.01 | 96.8 | 15.8 | 97.7 | 3.16 | 95.4 | 10 | 59.5 | 100 | 107.1 | 12.6 | 86.3 | O=C(Nc1ccc(-c2cc(C3CC3)n[nH]2)cc1)c1cccc(CN2CCS(=O)(=O)CC2)c1 [Example 4-19, N-[4-(5-Cyclopropyl-1H-pyrazol-3-yl)phenyl]-3-[(1,1-dioxo-1,4-thiazinan-4-yl)methyl]benzamide]
4 | 2 | 97.0 | 5.01 | 97.6 | 1.26 | 98.6 | 3.98 | 49.2 | 100 | 111.1 | 15.8 | 89.9 | Cc1c(-c2ccc(NC(=O)c3ccc(Cl)c(CN4CCS(=O)(=O)CC4)c3)cc2)n[nH]c1C1CC1 [Example 4-22, 4-chloro-N-[4-(5-cyclopropyl-4-methyl-1H-pyrazol-3-yl)phenyl]-3-[(1,1-dioxo-1,4-thiazinan-4-yl)methyl]benzamide]
5 | 0.794 | 97.0 | 6.31 | 97.6 | 0.794 | 99.2 | 5.01 | 58.6 | 63.1 | 111.9 | 6.31 | 92.5 | Cc1c(-c2ccc(NC(=O)c3ccc(Cl)c(CN4CCS(=O)(=O)CC4)c3)cc2)nn(C)c1C1CC1 [Example 4-26, 4-Chloro-N-[4-(5-cyclopropyl-1,4-dimethylpyrazol-3-yl)phenyl]-3-[(1,1-dioxo-1,4-thiazinan-4-yl)methyl]benzamide]
